# Assay results reported in patent EP3609473B1, “ORAL COMPOSITIONS FOR THE TREATMENT OF IRON […]” (Labomar S.p.A., priority 2017, dated 2018).
# Details: after SGF, 50 ml simulated intestinal fluid (SIF) added, pH settled at 6.0 with NaOH 2.5% w/v
# Procedure: The solid composition (A) is maintained for 90 minutes (corresponding to the empty stomach emptying time) in a simulated gastric environment (SGF) pH 1.5 by adding HCl, thermostated at 37°C.
# Subsequently, 50 ml of simulated intestinal fluid (SIF) are added to the system to simulate the transit in the first intestinal tract and the pH is settled at 6.0 with NaOH 2.5% w/v.
smiles,measurement,value
"NCC(=O)[O-].NCC(=O)[O-].[Fe+2] [bisglycinate iron, ferrous bisglycinate]",colour of the liquid (purple = iron in reduced form; amber = no more reducible ferric oxides),amber-coloured liquid
